Reference: ChEMBL document CHEMBL1201862, “PubChem BioAssay data set” (2004)
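Step 1: Grow cells in 96-well plates. Step 2: Expose to compound for 48 hours at 5 concentrations. Step 3: Interpolate endpoints linearly; if unreached, use highest concentration. GI50 = concentration required for 50% inhibition of growth.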 Calls of active or inactive are those of the source. Rule as the data show it: active = GI50 up to about 1.1 µM and inactive = higher.

What was measured:
Test in all cases: inhibition of tumour cell growth, NCI panel, 48 h
NCI-H23 = test system: NCI-H23
SNB-19 = test system: SNB-19
SF-539 = test system: SF-539
Hs-578T = test system: Hs-578T
NCI-H460 = test system: NCI-H460
A549 = test system: A549
PC-3 = test system: PC-3
HL-60 = test system: HL-60
RXF 393 = test system: RXF 393
DU-145 = test system: DU-145
RPMI-8226 = test system: RPMI-8226
SF-295 = test system: SF-295
SK-OV-3 = test system: SK-OV-3
MDA-MB-231 = test system: MDA-MB-231
KM12 = test system: KM12
NCI/ADR-RES = test system: NCI/ADR-RES
T47D = test system: T47D
UO-31 = test system: UO-31
IGROV-1 = test system: IGROV-1
HT-29 = test system: HT-29

Row | Structure (SMILES) | GI50 (NCI-H23) | GI50 (SNB-19) | GI50 (SF-539) | GI50 (Hs-578T) | GI50 (NCI-H460) | GI50 (A549) | GI50 (PC-3) | GI50 (HL-60) | GI50 (RXF 393) | GI50 (DU-145) | GI50 (RPMI-8226) | GI50 (SF-295) | GI50 (SK-OV-3) | GI50 (MDA-MB-231) | GI50 (KM12) | GI50 (NCI/ADR-RES) | GI50 (T47D) | GI50 (UO-31) | GI50 (IGROV-1) | GI50 (HT-29)
1 | CCOC(=O)C1CCC/C1=N\NC(=N)N.Cc1cc(O)c(C(C)C)cc1S(=O)(=O)O (stereo not given) | > 100 µM (inactive) | > 100 µM (inactive) | > 100 µM (inactive) | > 100 µM (inactive) | > 100 µM (inactive) | > 100 µM (inactive) | > 100 µM (inactive) | > 100 µM (inactive) | > 100 µM (inactive) | > 100 µM (inactive) | > 100 µM (inactive) | > 100 µM (inactive) | > 100 µM (inactive) | > 100 µM (inactive) | > 100 µM (inactive) | > 100 µM (inactive) | > 100 µM (inactive) | > 100 µM (inactive) | > 100 µM (inactive) | > 100 µM (inactive)
2 | O=P(O)(O)CN1CCNCCN(CP(=O)(O)O)CC1 | 54.6 µM (inactive) | > 100 µM (inactive) | > 22.1 µM (inactive) | > 100 µM (inactive) | 11.3 µM (inactive) | 15.2 µM (inactive) | 52.4 µM (inactive) | 4.21 µM (inactive) | 28.8 µM (inactive) | > 100 µM (inactive) | 20.4 µM (inactive) | 41.5 µM (inactive) | 23.7 µM (inactive) | 36 µM (inactive) | 28.6 µM (inactive) | > 19.9 µM (inactive) | > 68.4 µM (inactive) | > 100 µM (inactive) | 33.3 µM (inactive) | 4.26 µM (inactive)
3 | C=C1C(=O)OC2C(C)C3C=CC(=O)[C@@]3(C)C(OC(=O)/C(C)=C/C)C1[C@@H]2OC(C)=O (stereo not given in full) | 0.467 µM (active) | 1.89 µM (inactive) | 0.333 µM (active) | 0.308 µM (active) | 0.3 µM (active) | 1.67 µM (inactive) | 0.522 µM (active) | 0.327 µM (active) | 0.215 µM (active) | 1.36 µM (inactive) | 0.486 µM (active) | 1.43 µM (inactive) | 1.59 µM (inactive) | 0.259 µM (active) | 1.46 µM (inactive) | 0.237 µM (active) | 0.336 µM (active) | 1.21 µM (inactive) | 0.78 µM (active) | 0.486 µM (active)
4 | S=C(S)NCNC(=S)S | > 100 µM (inactive) | > 100 µM (inactive) | > 100 µM (inactive) | > 100 µM (inactive) | > 100 µM (inactive) | > 100 µM (inactive) | > 100 µM (inactive) | > 100 µM (inactive) | > 100 µM (inactive) | > 100 µM (inactive) | > 100 µM (inactive) | > 100 µM (inactive) | > 100 µM (inactive) | > 100 µM (inactive) | > 100 µM (inactive) | > 100 µM (inactive) | > 100 µM (inactive) | > 100 µM (inactive) | > 100 µM (inactive) | > 100 µM (inactive)
5 | O=C1/C(=C\c2ccc([N+](=O)[O-])cc2)N(S(=O)(=O)c2ccccc2)c2ncccc21 | 13.7 µM (inactive) | 24.5 µM (inactive) | 24.8 µM (inactive) | 31.2 µM (inactive) | 18.7 µM (inactive) | 40.2 µM (inactive) | 14 µM (inactive) | 2.18 µM (inactive) | 16.6 µM (inactive) | 27.5 µM (inactive) | 5.43 µM (inactive) | 28.2 µM (inactive) | 0.0212 µM (active) | 16.1 µM (inactive) | 20.3 µM (inactive) | 23.9 µM (inactive) | 13.4 µM (inactive) | 19.3 µM (inactive) | 18.3 µM (inactive) | 16.6 µM (inactive)
6 | CCOC(=O)C(C(=O)OCC)C1C=CCC2c3ccccc3COCC21 (stereo not given) | 43.6 µM (inactive) | > 100 µM (inactive) | > 100 µM (inactive) | 73.8 µM (inactive) | 62.1 µM (inactive) | 66.5 µM (inactive) | 42.6 µM (inactive) | 22.4 µM (inactive) | > 100 µM (inactive) | > 100 µM (inactive) | 41.5 µM (inactive) | 43.6 µM (inactive) | 85.5 µM (inactive) | > 100 µM (inactive) | 33.6 µM (inactive) | 28.2 µM (inactive) | 30.2 µM (inactive) | 43.9 µM (inactive) | 75.5 µM (inactive) | 54.7 µM (inactive)
7 | C=CC(C1=CC(=O)C(OC)=CC1=O)c1ccccc1 (stereo not given) [4-METHOXYDALBERGIONE] | 16.1 µM (inactive) | 15.8 µM (inactive) | 14.2 µM (inactive) | 17.8 µM (inactive) | 17.1 µM (inactive) | 25.4 µM (inactive) | 9.53 µM (inactive) | 2.38 µM (inactive) | 15.6 µM (inactive) | 16.5 µM (inactive) | 9.64 µM (inactive) | 12.2 µM (inactive) | 17.3 µM (inactive) | 6.97 µM (inactive) | 15.7 µM (inactive) | 18.5 µM (inactive) | 2.65 µM (inactive) | 15.9 µM (inactive) | 16.4 µM (inactive) | 19.3 µM (inactive)
8 | CCCN1CC=C(c2cc(C(=O)OCC)[nH]c2-c2cc(C)no2)C1=O | > 100 µM (inactive) | > 100 µM (inactive) | > 100 µM (inactive) | > 100 µM (inactive) | > 100 µM (inactive) | > 100 µM (inactive) | > 100 µM (inactive) | > 100 µM (inactive) | > 100 µM (inactive) | > 100 µM (inactive) | 75 µM (inactive) | > 100 µM (inactive) | > 100 µM (inactive) | > 100 µM (inactive) | > 100 µM (inactive) | > 100 µM (inactive) | > 100 µM (inactive) | 89.7 µM (inactive) | > 100 µM (inactive) | > 100 µM (inactive)
9 | O=C(NO)NCCCl | > 100 µM (inactive) | > 100 µM (inactive) | > 100 µM (inactive) | > 100 µM (inactive) | > 100 µM (inactive) | > 100 µM (inactive) | > 100 µM (inactive) | > 100 µM (inactive) | > 100 µM (inactive) | > 100 µM (inactive) | > 100 µM (inactive) | > 100 µM (inactive) | > 100 µM (inactive) | > 100 µM (inactive) | > 100 µM (inactive) | > 100 µM (inactive) | > 100 µM (inactive) | > 100 µM (inactive) | > 100 µM (inactive) | > 100 µM (inactive)
10 | CN(CCCCN1CCCC1)CCCCN(C)C(=O)Cc1ccc(Cl)c(Cl)c1 | 17.9 µM (inactive) | 19.3 µM (inactive) | 9.29 µM (inactive) | 19.5 µM (inactive) | 14.8 µM (inactive) | 14.4 µM (inactive) | 16.8 µM (inactive) | 17.5 µM (inactive) | 11.7 µM (inactive) | 25.2 µM (inactive) | 5.33 µM (inactive) | 19.5 µM (inactive) | 23.6 µM (inactive) | 10.1 µM (inactive) | 13.1 µM (inactive) | > 100 µM (inactive) | 20.2 µM (inactive) | 1.71 µM (inactive) | 18.2 µM (inactive) | 3.85 µM (inactive)
11 | COc1ccc(C(C)NNC(=O)c2ccncc2)cc1OC (stereo not given) | > 100 µM (inactive) | > 100 µM (inactive) | > 100 µM (inactive) | > 100 µM (inactive) | > 100 µM (inactive) | > 100 µM (inactive) | > 100 µM (inactive) | > 100 µM (inactive) | > 100 µM (inactive) | > 100 µM (inactive) | > 100 µM (inactive) | > 100 µM (inactive) | 26.4 µM (inactive) | > 100 µM (inactive) | > 100 µM (inactive) | > 100 µM (inactive) | > 100 µM (inactive) | > 100 µM (inactive) | > 100 µM (inactive) | > 100 µM (inactive)
12 | Nc1ccccc1N/C(=C\C(=O)C(Cl)(Cl)Cl)c1ccccc1 | 30.3 µM (inactive) | 36.9 µM (inactive) | 18.8 µM (inactive) | 29.6 µM (inactive) | 25.9 µM (inactive) | 28.8 µM (inactive) | 22.5 µM (inactive) | 20.5 µM (inactive) | 19.1 µM (inactive) | 38.8 µM (inactive) | 23.1 µM (inactive) | 36.6 µM (inactive) | 88.5 µM (inactive) | 15.2 µM (inactive) | 33.6 µM (inactive) | 29.2 µM (inactive) | 20.7 µM (inactive) | 17.2 µM (inactive) | 5.6 µM (inactive) | 27.4 µM (inactive)
